Test [1] addresses T1, HCV polymerase (NS5B) type 1b (Hepatitis C virus genotype 1b, UniProt P26663).
T1 construct: a region encoding NS5B (J Virol 1991 March, 65(3), 1105-13, 544 amino acids after deletion of 47 amino acids on the C-terminal); 6xHis (C); made in house; host or cells: Escherichia coli
Description: Assay of enzyme (HCV polymerase) inhibitory activity, type 1b enzyme. Type of test: biochemical, HCV BK strain (type 1b). The note with it: HCV polymerase inhibitory activity (IC50), 1b, type 1b enzyme 0.5 μg/ml, 25° C., 60 min. The essentials:
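Polymerase activity was followed as radiolabelled UTP incorporation by E. coli-expressed, His-tagged NS5B of HCV type 1b lacking its last 47 residues. Conditions: 2 μM UTP, 50 μM other NTPs, Mg2+ buffer at pH 7.5, 25 °C for 60 min. Inhibition relative to compound-free reactions gave IC50.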

Test [2] deals with T2, HCV polymerase (NS5B) type 1a (Hepatitis C virus genotype 1a, UniProt P26664).
T2 construct: made in house; host or cells: Escherichia coli (by the 'similar method' of the 1b enzyme)
Description: Assay of enzyme (HCV polymerase) inhibitory activity, type 1a enzyme. It counts as biochemical, HCV type 1a (cloned from the blood of patients). Particulars: HCV polymerase inhibitory activity (IC50), 1a, type 1a enzyme 1.5 μg/ml, 25° C., 60 min. The essentials:
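IC50 values derive from radioactivity of newly synthesized RNA with versus without test compound. The enzyme was C-terminally truncated type 1a NS5B, 1.5 μg/ml, run 60 min at 25° C with 3H-UTP-labelled nucleotides.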

One may read the IC50 as the concentration at which inhibition is half-maximal. A high value points to lower potency.

For `CC(=O)N1CCN(S(=O)(=O)c2ccc(C(C)C)cc2)[C@@H](C(=O)NCc2ccc(CO)cc2)C1` [Example 226, (R)-4-acetyl-1-(4-isopropyl-benzenesulfonyl)-piperazine-2-carboxylic acid 4-hydroxymethyl-benzylamide], the 50% inhibitory concentration (IC50) in test [1] and in test [2] was greater than 1 µM each time.
On to `CSc1ccc(CNC(=O)[C@H]2CN(C(C)=O)CCN2S(=O)(=O)c2ccc(C(C)C)cc2)cc1` [Example 227, (R)-4-acetyl-1-(4-isopropyl-benzenesulfonyl)-piperazine-2-carboxylic acid 4-methylsulfanyl-benzylamide], for which the IC50 in test [1] and in test [2] was 0.1 to 1 µM throughout.
`CC(C)c1ccc(CNC(=O)[C@H]2CN(C(=O)Cn3cccn3)CCN2S(=O)(=O)c2ccc(C(F)(F)F)cc2)cc1` [Example 228, (R)-4-(2-pyrazol-1-yl-acetyl)-1-(4-trifluoromethyl-benzenesulfonyl)-piperazine-2-carboxylic acid 4-isopropyl-benzylamide]: the IC50 in test [1] and in test [2] was 0.1 to 1 µM each time.
Turning to `CC(C)c1ccc(CNC(=O)[C@H]2CN(C(=O)Cn3cncn3)CCN2S(=O)(=O)c2ccc(C(F)(F)F)cc2)cc1` [Example 229, (R)-4-(2-[1,2,4]triazol-1-yl-acetyl)-1-(4-trifluoromethyl-benzenesulfonyl)-piperazine-2-carboxylic acid 4-isopropyl-benzylamide], the IC50 in test [1] and in test [2] was less than 0.1 µM throughout.
Regarding `CC(C)c1ccc(CNC(=O)[C@H]2CN(C(=O)Cn3cnnc3)CCN2S(=O)(=O)c2ccc(C(F)(F)F)cc2)cc1` [Example 230, (R)-4-(2-[1,2,4]triazol-4-yl-acetyl)-1-(4-trifluoromethyl-benzenesulfonyl)-piperazine-2-carboxylic acid 4-isopropyl-benzylamide], the IC50 in test [1] and in test [2] was less than 0.1 µM each time.
Consider `CC(=O)N1CCN(S(=O)(=O)c2ccc(C(C)C)cc2)[C@@H](C(=O)NCc2ccc(C(C)(C)C(=O)O)cc2)C1` [Example 231, 2-[4-({[(R)-4-acetyl-1-(4-isopropyl-benzenesulfonyl)-piperazine-2-carbonyl]-amino}-methyl)-phenyl]-2-methyl-propionic acid], for which the IC50 in test [1] and in test [2] was greater than 1 µM each time.
Consider `CCc1ccc(CNC(=O)[C@H]2CN(C(C)=O)CCN2S(=O)(=O)c2ccc(C(C)C)cc2)cc1` [Example 232, (R)-4-acetyl-1-(4-isopropyl-benzenesulfonyl)-piperazine-2-carboxylic acid 4-ethyl-benzylamide], for which the IC50 in test [1] and in test [2] was 0.1 to 1 µM throughout.
As to `CC(=O)N1CCN(S(=O)(=O)c2ccc(C(C)C)cc2)[C@@H](C(=O)NCc2ccc(C(C)(C)C(=O)N(C)C)cc2)C1` [Example 233, (R)-4-acetyl-1-(4-isopropyl-benzenesulfonyl)-piperazine-2-carboxylic acid 4-(1-dimethylcarbamoyl-1-methyl-ethyl)-benzylamide], the IC50 in test [1] and in test [2] was greater than 1 µM each time.
As to `CC(=O)N1CCN(S(=O)(=O)c2ccc(C(C)C)cc2)[C@@H](C(=O)NCc2ccc(C3(CO)CC3)cc2)C1` [Example 234, (R)-4-acetyl-1-(4-isopropyl-benzenesulfonyl)-piperazine-2-carboxylic acid 4-(1-hydroxymethyl-cyclopropyl)-benzylamide], the 50% inhibitory concentration (IC50) in test [1] and in test [2] was greater than 1 µM in each case.
Take `COC(=O)c1cc(S(=O)(=O)N2CCN(C(C)=O)C[C@@H]2C(=O)NCc2ccc(C(C)C)cc2)ccc1OC` [Example 235, 5-[(R)-4-acetyl-2-(4-isopropyl-benzylcarbamoyl)-piperazine-1-sulfonyl]-2-methoxy-benzoic acid methyl ester]: the IC50 in test [1] and in test [2] was greater than 1 µM throughout.
For `CCc1cc(S(=O)(=O)N2CCN(C(C)=O)C[C@@H]2C(=O)NCc2ccc(C(C)C)cc2)ccc1OC` [Example 236, (R)-4-acetyl-1-(3-ethyl-4-methoxy-benzenesulfonyl)-piperazine-2-carboxylic acid 4-isopropyl-benzylamide], the IC50 in test [1] and in test [2] was 0.1 to 1 µM throughout.
For the molecule `CC(=O)N1CCN(S(=O)(=O)c2ccc(CC(C)(C)C)cc2)[C@@H](C(=O)NCc2ccc(C(C)C)cc2)C1` [Example 237, (R)-4-acetyl-1-[4-(2,2-dimethyl-propyl)-benzenesulfonyl]-piperazine-2-carboxylic acid 4-isopropyl-benzylamide], the IC50 in test [1] and in test [2] was less than 0.1 µM in each case.
Consider `COC(=O)COc1ccc(S(=O)(=O)N2CCN(C(C)=O)C[C@@H]2C(=O)NCc2ccc(C(C)C)cc2)cc1` [Example 238, {4-[(R)-4-acetyl-2-(4-isopropyl-benzylcarbamoyl)-piperazine-1-sulfonyl]-phenoxy}-acetic acid methyl ester], for which the IC50 in test [1] was 0.1 to 1 µM; in test [2] it was greater than 1 µM.
For the molecule `COc1ccc(S(=O)(=O)N2CCN(C(C)=O)C[C@@H]2C(=O)NCc2ccc(C(C)C)cc2)cc1C#N` [Example 239, (R)-4-acetyl-1-(3-cyano-4-methoxy-benzenesulfonyl)-piperazine-2-carboxylic acid 4-isopropyl-benzylamide], the IC50 in test [1] was 0.1 to 1 µM; in test [2], greater than 1 µM.
The corresponding values for `COc1ccc(S(=O)(=O)N2CCN(C(C)=O)C[C@@H]2C(=O)NCc2ccc(C(C)C)cc2)cc1C(C)(C)C` [Example 240, (R)-4-acetyl-1-(3-tert-butyl-4-methoxy-benzenesulfonyl)-piperazine-2-carboxylic acid 4-isopropyl-benzylamide] are less than 0.1 µM and 0.1 to 1 µM.
With `COc1ccc(S(=O)(=O)N2CCN(C(C)=O)C[C@@H]2C(=O)NCc2ccc(C(C)C)cc2)cc1C1CCCC1` [Example 241, (R)-4-acetyl-1-(3-cyclopentyl-4-methoxy-benzenesulfonyl)-piperazine-2-carboxylic acid 4-isopropyl-benzylamide], the IC50 in test [1] and in test [2] was 0.1 to 1 µM each time.
`CC(C)c1ccc(CNC(=O)[C@H]2CN(C(=O)Cn3nccn3)CCN2S(=O)(=O)c2ccc(C(F)(F)F)cc2)cc1` [Example 242, (R)-4-(2-[1,2,3]triazol-2-yl-acetyl)-1-(4-trifluoromethyl-benzenesulfonyl)-piperazine-2-carboxylic acid 4-isopropyl-benzylamide]: the half-inhibitory concentration (IC50) in test [1] and in test [2] was 0.1 to 1 µM each time.
Take `CC(C)c1ccc(CNC(=O)[C@H]2CN(C(=O)NCc3ccccc3)CCN2S(=O)(=O)c2ccc(C(F)(F)F)cc2)cc1` [Example 243, (R)-4-(4-trifluoromethyl-benzenesulfonyl)-piperazine-1,3-dicarboxylic acid 1-benzylamide 3-(4-isopropyl-benzylamide)]: the IC50 in test [1] and in test [2] was greater than 1 µM throughout.
For `CC(C)c1ccc(CNC(=O)[C@H]2CN(c3nc(C(=O)O)cs3)CCN2S(=O)(=O)c2ccc(C(F)(F)F)cc2)cc1` [Example 244, 2-[(R)-3-(4-isopropyl-benzylcarbamoyl)-4-(4-trifluoromethyl-benzenesulfonyl)-piperazin-1-yl]-thiazole-4-carboxylic acid], the IC50 in test [1] and in test [2] was 0.1 to 1 µM throughout.
Turning to `CCOC(=O)COc1ccc(NC(=O)N2CCN(S(=O)(=O)c3ccc(C(F)(F)F)cc3)[C@@H](C(=O)NCc3ccc(C(C)C)cc3)C2)cc1` [Example 245, (4-{[(R)-3-(4-isopropyl-benzylcarbamoyl)-4-(4-trifluoromethyl-benzenesulfonyl)-piperazine-1-carbonyl]-amino}-phenoxy)-acetic acid ethyl ester], the IC50 is 0.1 to 1 µM in test [1] and greater than 1 µM in test [2].
In the case of `CC(C)c1ccc(CNC(=O)[C@H]2CN(C(=O)Nc3ccc(OCC(=O)O)cc3)CCN2S(=O)(=O)c2ccc(C(F)(F)F)cc2)cc1` [Example 246, (4-{[(R)-3-(4-isopropyl-benzylcarbamoyl)-4-(4-trifluoromethyl-benzenesulfonyl)-piperazine-1-carbonyl]-amino}-phenoxy)-acetic acid], the IC50 is 0.1 to 1 µM in test [1] and greater than 1 µM in test [2].
`CCCc1ccc(S(=O)(=O)N2CCN(C(C)=O)C[C@@H]2C(=O)NCc2ccc(CC)cc2)cc1` [Example 247, (R)-4-acetyl-1-(4-propyl-benzenesulfonyl)-piperazine-2-carboxylic acid 4-ethyl-benzylamide]: the IC50 in test [1] is less than 0.1 µM; in test [2], 0.1 to 1 µM.
For `COc1ccc(S(=O)(=O)N2CCN(C(C)=O)C[C@@H]2C(=O)NCc2ccc(C(C)C)cc2)cc1C(=O)O` [Example 248, 5-[(R)-4-acetyl-2-(4-isopropyl-benzylcarbamoyl)-piperazine-1-sulfonyl]-2-methoxy-benzoic acid], the IC50 in test [1] was 0.1 to 1 µM; in test [2], greater than 1 µM.
For `CC(=O)N1CCN(S(=O)(=O)c2ccc(OCC(=O)O)cc2)[C@@H](C(=O)NCc2ccc(C(C)C)cc2)C1` [Example 249, {4-[(R)-4-acetyl-2-(4-isopropyl-benzylcarbamoyl)-piperazine-1-sulfonyl]-phenoxy}-acetic acid] the same measures were greater than 1 µM and greater than 1 µM.
